Here are results for 1 compound from patent US20070010897A1, “Immunochemically modified and sterilized xenografts and allografts” (priority 2005, published 2007).

Assay [1] deals with Porcine Parvovirus. The assay is described as follows: Viral inactivation test, Porcine Parvovirus. The note with it: Porcine Parvovirus (NEnv./DNA); single process step (glutaraldehyde or E-beam 17.8 kGy).
The test system of assay [2] is Reovirus 3. The assay can be described thus: Viral inactivation test, Reovirus 3. The note with it: Reovirus 3 (NEnv./RNA); single process step (glutaraldehyde or E-beam 17.8 kGy).

For `O=CCCCC=O` [Glutaraldehyde, glutaraldehyde], the “Log10 Reduction” value is 1.91 Log10 in assay [1] and 4.24 Log10 in assay [2].
